Reference: ChEMBL document CHEMBL4813925, “Antibacterial Drimane Sesquiterpenes from Aspergillus ustus” (J Nat Prod, 2021)
In brackets after ≈: the same amount, converted by molar mass. Activity calls are given as the source filed them. No cut-off for these calls is given here.

What was measured:
[1] = tested on: Bacillus subtilis; test: Antibacterial activity against Bacillus subtilis ATCC 49343 assessed as bacterial growth inhibition by CLSI protocol based microbroth dilution method; type: functional
[2] = tested on: Enterococcus faecium; test: Antibacterial activity against vancomycin-resistant Enterococcus faecium ATCC 700221 assessed as bacterial growth inhibition by CLSI protocol based microbroth dilution method; type: functional
[3] = tested on: Staphylococcus aureus; test: Antibacterial activity against multidrug-resistant Staphylococcus aureus ATCC BAA-44 assessed as bacterial growth inhibition by CLSI protocol based microbroth dilution method; type: functional
[4] = tested on: Staphylococcus aureus; test: Synergistic antibacterial activity against multidrug-resistant Staphylococcus aureus ATCC BAA-44 assessed as bacterial growth inhibition in presence of ustusoic-acidB; type: functional
[5] = tested on: Bacillus subtilis; test: Synergistic antibacterial activity against Bacillus subtilis ATCC 49343 assessed as coefficient of drug interaction in presence of Stromemycin; type: functional
[6] = tested on: Candida albicans; test: Antifungal activity against Candida albicans ATCC 90027 assessed as fungal growth inhibition by CLSI protocol based microbroth dilution method; type: functional, organism-based
[7] = tested on: Enterococcus faecium; test: Synergistic antibacterial activity against vancomycin-resistant Enterococcus faecium ATCC 700221 assessed as coefficient of drug interaction in presence of Stromemycin; type: functional
[8] = tested on: Staphylococcus aureus; test: Synergistic antibacterial activity against multidrug-resistant Staphylococcus aureus ATCC BAA-44 assessed as coefficient of drug interaction in presence of Stromemycin; type: functional
[9] = tested on: Bacillus subtilis; test: Synergistic antibacterial activity against Bacillus subtilis ATCC 49343 assessed as bacterial growth inhibition in presence of ustusoic-acidB; type: functional
[10] = tested on: Enterococcus faecium; test: Synergistic antibacterial activity against vancomycin-resistant Enterococcus faecium ATCC 700221 assessed as bacterial growth inhibition in presence of ustusoic-acidB; type: functional
[11] = tested on: HCT-116; test: Cytotoxicity against human HCT-116 cells by MTT assay; type: cell-based
[12] = tested on: Bacillus subtilis; test: Synergistic antibacterial activity against Bacillus subtilis ATCC 49343 assessed as bacterial growth inhibition in presence of Stromemycin; type: functional
[13] = tested on: Bacillus subtilis; test: Synergistic antibacterial activity against Bacillus subtilis ATCC 49343 assessed as coefficient of drug interaction in presence of ustusoic-acidB; type: functional
[14] = tested on: Staphylococcus aureus; test: Synergistic antibacterial activity against multidrug-resistant Staphylococcus aureus ATCC BAA-44 assessed as bacterial growth inhibition in presence of Stromemycin; type: functional
[15] = tested on: Staphylococcus aureus; test: Synergistic antibacterial activity against multidrug-resistant Staphylococcus aureus ATCC BAA-44 assessed as coefficient of drug interaction in presence of ustusoic-acidB; type: functional
[16] = tested on: Enterococcus faecium; test: Synergistic antibacterial activity against vancomycin-resistant Enterococcus faecium ATCC 700221 assessed as bacterial growth inhibition in presence of Stromemycin; type: functional
[17] = tested on: Enterococcus faecium; test: Synergistic antibacterial activity against vancomycin-resistant Enterococcus faecium ATCC 700221 assessed as coefficient of drug interaction in presence of ustusoic-acidB; type: functional

Q: How did the MIC [1] turn out when `C/C=C/C=C/C=C/C(=O)O[C@@H]1C=C(CO)[C@](O)(C(=O)O)[C@@]2(C)CCCC(C)(C)[C@H]12` was run?
A: 64 µg/mL (≈ 158 µM)

Q: What about the MIC [2] of the same molecule?
A: 128 µg/mL (≈ 316 µM)

Q: And the MIC ([3]; read-out: MIC)?
A: > 128 µg/mL

Q: With `O=C(N[C@H](CO)[C@H](O)c1ccc([N+](=O)[O-])cc1)C(Cl)Cl` [CHLORAMPHENICOL] as the molecule, how does the MIC99 [1] read?
A: 125 µg/mL (≈ 387 µM)

Q: `O=C1CN(/N=C/c2ccc([N+](=O)[O-])o2)C(=O)N1` [NITROFURANTOIN] was tested. Which MIC99 [2] did it give?
A: 125 µg/mL (≈ 525 µM)

Q: Which results are given for `CCC/C=C/C=C/CCc1cc(OC(=O)c2c(CC/C=C/C=C/CCC)cc(O)c([C@@H]3O[C@H](CO)[C@@H](O)[C@H](O)[C@H]3O)c2O)cc(O)c1C(=O)O`?
A: MIC [4]: 64 µg/mL; CI [5]: 0.0009; Activity [6]: inactive; MIC [1]: 64 µg/mL (≈ 91.8 µM); MIC [2]: > 128 µg/mL; MIC ([3]; read-out: MIC): > 128 µg/mL; CI [7]: 0.00013; CI [8]: 0.00014; MIC [9]: 8 µg/mL; MIC [10]: 32 µg/mL; Activity [11]: Non-Toxic

Q: Which MIC ([3]; read-out: MIC100) does the source give for `CN[C@H](CC(C)C)C(=O)N[C@H]1C(=O)N[C@@H](CC(N)=O)C(=O)N[C@H]2C(=O)N[C@H]3C(=O)N[C@H](C(=O)N[C@H](C(=O)O)c4cc(O)cc(O)c4-c4cc3ccc4O)[C@H](O)c3ccc(c(Cl)c3)Oc3cc2cc(c3O[C@@H]2O[C@H](CO)[C@@H](O)[C@H](O)[C@H]2O[C@H]2C[C@](C)(N)[C@H](O)[C@H](C)O2)Oc2ccc(cc2Cl)[C@H]1O` [VANCOMYCIN] here?
A: 125 µg/mL (≈ 86.3 µM)

Q: For `C/C=C/C=C/C=C/C(=O)O[C@@H]1C=C(C=O)[C@](O)(C(=O)O)[C@@]2(C)CCCC(C)(C)[C@H]12`, which MIC [12] is on record?
A: 8 µg/mL

Q: And the Activity [6]?
A: inactive

Q: What about the MIC [1] of the same molecule?
A: 38 µg/mL (≈ 94.4 µM)

Q: And the CI [13]?
A: 0.0009

Q: And the MIC [14]?
A: 64 µg/mL

Q: And the MIC [2]?
A: 67 µg/mL (≈ 166 µM)

Q: What about the MIC ([3]; read-out: MIC) of the same molecule?
A: > 128 µg/mL

Q: What about the CI [15] of the same molecule?
A: 0.00014

Q: And the MIC [16]?
A: 32 µg/mL

Q: And the Activity [11]?
A: Non-Toxic

Q: And the CI [17]?
A: 0.00013
